In paper PMC8533149 (Biomolecules, 2021):
Read-outs that look alike come from different tables or passages of the source.

Tests used:
[1] = test system: HIV-1 LTR-III G-quadruplex (FAM/TAMRA-labeled LTR-III); experiment: FRET melting assay, LTR-III G4; format: binding; conditions: for LTR III stabilization: Figure 7, stabilization group; for LTR-III (average): Table S12, average stabilization
How it was run: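 Melting is followed by FAM fluorescence (ex 495/em 520 nm) while heating at 1 °C/min from 30 to 95 °C. Labelled ODN at 0.5 μM, pre-annealed in 10 mM Li cacodylate, 100 mM KCl, pH 7.4, mixed with ligand at 50:1 (25 μM), or 20:1 and 2:1 for titration. ΔTm is relative to the 0.25% DMSO buffer control.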

Cytotoxicity test = format: cell-based; conditions: human, MT4 cells (human T cell leukemia), Figure 7
Method: (§1) Green monkey kidney (Vero, Beach, FL, USA) cell line was maintained in 2 × Eagle MEM (“Chumakov FSC R&D IBP RAS”, Russia) with 5% FBS with L-glutamine, penicillin and streptomycin. […] HIV-1 strain NL4-3 was obtained via cell transfection with pNL4-3 3 (ARP2006, NIBSC, Potters Bar, UK).
(§2) MT4 cell suspensions were added to the wells with compound dilutions and DMSO control (approx. 2 × 10^4 cells per well). […] All experimental procedures were performed in two replicates and were repeated two to four times. Mean and SD were calculated with OriginPro 8 (OriginLab, St. Louis, MO, USA).

MT4 cells = experiment: Cytotoxicity test; format: cell-based; conditions: Table S12, nine days
Method: as §1, §2

[2] = test system: Pu39 G4 (G-rich region of the P1 promoter of BCL-2); experiment: FRET melting assay, Pu39; format: binding, human; conditions: 50:1
Method: (§3) To evaluate stabilizing properties of the ligands in a complex with oligodeoxyribonucleotides (ODNs) melting with fluorescence registration was used. ODN (0.5 μM) (Table 1), labeled with 6-carboxyfluorescein (FAM) and 6-carboxytetramethylrhodamine (TAMRA) at the 5′- and 3′-end, respectively, were folded in lithium cacodylate buffer (10 mM, pH 7.4) with 100 mM KCl by heating at 95 °C for 5 min and gradually cooling to r.t. GFP chromophore analogs (5 mM solution in DMSO) were diluted with the same buffer to the final concentration of 25 μM and mixed with an equal volume of 0.5 μM ODN solution resulting in a molar ratio of 50:1 (total volume was 50 μL). For the titration experiments molar ratios of 20:1 and 2:1 were used. Samples were analyzed using DTprime qPCR system (DNA-Technology LLC, Moscow, Russia). Fluorescence was registered by detection of FAM emission at 520 nm upon excitation at 495 nm in the temperature range of 30–95 °C with 1 °C/min gradient. Tm was determined using the instrument software and ΔTm was calculated relative to ODN Tm in a buffer solution containing 0.25% (v/v) DMSO. The primary and secondary screening were carried out in singlicate and triplicate, respectively.
(§4) Initially we screened an in-house library of 440 synthetic GFP chromophore analogues for interaction with HIV-1 LTR-III sequence, which modulates HIV-1 promoter activity, using high-throughput screening (HTS) FRET melting assay (Table S1). […] We selected 11 compounds (Figure 2A), displaying stabilization in the range of 2.4–7.8 °C, and evaluated their ability to stabilize other G4-forming sequences, including human telomeric sequence Telo (one of the most common G4 structures in the human genome, having two conformations, Hybrid-1 and Hybrid-2 [36]) and model G4 […] (the G-rich Pu39 region of the P1 promoter of the oncogene BCL-2, an apoptosis regulator [37] with polymorphic conformational structure), as well as double stranded oligonucleotide (duplex) control sequence (Figure 2B, Table S2).

[3] = test system: human telomeric sequence Telo G4; experiment: FRET melting assay, Telo; format: binding; conditions: 50:1
Method: as §3, §4

[4] = test system: dsDNA (double stranded control sequence); experiment: FRET melting assay, duplex control; format: binding; conditions: 50:1
Method: as §3, §4

[5] = test system: HIV-1 strain NL4-3 in MT4 cells; experiment: Cytopathic effect inhibition test; format: cell-based; conditions: HIV-1 NL4-3, MT4 cells
Method: Human T cell leukemia (MT4) cell line was maintained in RPMI-1640 (“Chumakov FSC R&D IBP RAS”, Moscow, Russia) with 10% of fetal bovine serum (FBS, Invitrogen, Waltham, MA, USA), L-glutamine and gentamicin. Green monkey kidney (Vero, Beach, FL, USA) cell line was maintained in 2 × Eagle MEM (“Chumakov FSC R&D IBP RAS”, Russia) with 5% FBS with L-glutamine, penicillin and streptomycin. Cell cultures were incubated in the present of 5% CO2 at 37 °C. HIV-1 strain NL4-3 was obtained via cell transfection with pNL4-3 3 (ARP2006, NIBSC, Potters Bar, UK).
Eight two-fold dilutions of stock solutions of the compounds in two replicates were prepared in RPMI-1640 (“Chumakov FSC R&D IBP RAS”, Russia). Compound dilutions were mixed with equal volumes of the virus suspension containing 100 CCID50 (50% tissue culture infectious dose). Control cells were treated with the same sequential concentrations of DMSO as in compound dilutions. Then, the MT4 cell suspension (approx. 2 × 10^4 cells per well) in RPMI-1640 containing 10% FBS (Invitrogen, South America) was added to experimental mixtures. A final concentration series started from 25 μM. Each experiment contained virus dose titration in the inoculate to assure the acceptable dose-range. After a nine-day incubation (5% CO2, at 37 °C), cytopathic effect (CPE) was visually accessed via microscope. EC50 values were calculated according to the Karber method. All experimental procedures were performed in two replicates and were repeated two to four times. Mean and SD were calculated with OriginPro 8 (OriginLab, St. Louis, MO, USA).

[6] = Table S1 primary screening, ligand:ODN 50:1, singlicate
[7] = Table S2, primary screening lead compounds
[8] = LTR-III G4/ligand molar ratio 1:20
[9] = LTR-III G4/ligand molar ratio 1:50
[10] = Table S3 primary screening of newly synthesized analogs, 50:1
[11] = Table S5, newly synthesized compounds

## COc1cc(/C=C2N=C(/C=C/c3cc(Cl)nc(Cl)c3)N(C)C\2=O)cc(OC)c1O [N 960a]
[1]
  LTR III stabilization: > 3 °C
  LTR-III (average): 5,2 °C
[1]; [6]
  LTR-III ΔTm: 5.3 °C
Cytotoxicity test
  CC50 at 9 days: > 25 µM
MT4 cells
  СС50 (MT4): > 25 µM
[2]; [7]
  ΔTm Pu39: 0.5±0.01 °C
[3]; [7]
  ΔTm Telo: 1±0.7 °C
[4]; [7]
  ΔTm Duplex: -0.5±0.07 °C

## COc1cc(/C=C2N=C(/C=C/c3cc(OC)c(O)c(OC)c3)N(C)C\2=O)cc(OC)c1O [N1193]
[1]
  LTR III stabilization: > 3 °C
  LTR-III (average): 14 °C
[1]; LTR-III G4/ligand molar ratio 1:2
  ΔTm, titration: 2.4±0.6 °C
[1]; [8]
  ΔTm, titration: 9.1±0.6 °C
[1]; [9]
  ΔTm, titration: 13.1±0.2 °C
[1]; [10]
  LTR-III ΔTm: 14 °C
Cytotoxicity test
  CC50 at 9 days: 2 ± 1 µM
MT4 cells
  СС50 (MT4): 2.3 ± 1.1 µM
[2]; [11]
  ΔTm Pu39: 3.8±0.04 °C
[3]; [11]
  ΔTm Telo: 9.5±0.1 °C
[4]; [11]
  ΔTm Duplex: 0.6±0.1 °C

## COc1ccc(/C=C/C2=NC(=C\c3ccc(O)cc3OC)/C(=O)N2C)cc1 [N 1052]
[1]
  LTR III stabilization: > 3 °C
  LTR-III (average): 4,5 °C
[1]; [6]
  LTR-III ΔTm: 4.6 °C
Cytotoxicity test
  CC50 at 9 days: 7 ± 3 µM
MT4 cells
  СС50 (MT4): 6.6 ± 3.1 µM
[2]; [7]
  ΔTm Pu39: 2.1±0.2 °C
[3]; [7]
  ΔTm Telo: 3.9±0.1 °C
[4]; [7]
  ΔTm Duplex: -0.1±0.04 °C

## COc1c(O)ccc(/C=C2N=C(/C=C/c3ccnc4ccccc34)N(C)C\2=O)c1OC [N1197]
[1]
  LTR III stabilization: > 3 °C
  LTR-III (average): 11,3 °C
[1]; [8]
  ΔTm, titration: 8.5±0.3 °C
[1]; [9]
  ΔTm, titration: 11.4±0.2 °C
[1]; [10]
  LTR-III ΔTm: 11.3 °C
Cytotoxicity test
  CC50 at 9 days: 1.7 ± 0.8 µM
MT4 cells
  СС50 (MT4): 1.66 ± 0.79 µM
[2]; [11]
  ΔTm Pu39: 7±0.7 °C
[3]; [11]
  ΔTm Telo: 4.6±0.2 °C
[4]; [11]
  ΔTm Duplex: -0.4±0.2 °C

## COc1ccc(O)c(/C=C2N=C(/C=C/c3ccncc3)N(C)C\2=O)c1 [N 848.3]
[1]
  LTR III stabilization: > 3 °C
  LTR-III (average): 3,3 °C
[1]; [6]
  LTR-III ΔTm: 2.9 °C
Cytotoxicity test
  CC50 at 9 days: 6 ± 2 µM
MT4 cells
  СС50 (MT4): 5.5 ± 2.2 µM
[2]; [7]
  ΔTm Pu39: 0.7±0.3 °C
[3]; [7]
  ΔTm Telo: 1.1±0.2 °C
[4]; [7]
  ΔTm Duplex: 0.1±0.09 °C

## COc1c(O)ccc(/C=C2N=C(/C=C/c3cc(Cl)nc(Cl)c3)N(C)C\2=O)c1OC [N1198]
[1]
  LTR III stabilization: > 3 °C
  LTR-III (average): 6,5 °C
[1]; [10]
  LTR-III ΔTm: 6.5 °C
Cytotoxicity test
  CC50 at 9 days: 3 ± 1 µM
MT4 cells
  СС50 (MT4): 2.8 ± 1.1 µM
[5]; Human immunodeficiency virus 1, NL43, 216 h, Table S12, CPE, nine-day incubation, read-out: EC50
  EC50: 1780 ± 380 nM
[5]; Human immunodeficiency virus 1, NL43, Figure 7, read-out: Antiviral activity EC50 (HIV)
  EC50: 1800 ± 400 nM
[5]; Table S12, CPE, nine-day incubation
  EC50: micromolar range
[2]; [11]
  ΔTm Pu39: 0.1±0.1 °C
[3]; [11]
  ΔTm Telo: 0.9±0.2 °C
[4]; [11]
  ΔTm Duplex: 0±0.1 °C

## COc1cc(/C=C2N=C(/C=C/c3ccncc3)N(C)C\2=O)cc(OC)c1O [N 908]
[1]; [6]
  LTR-III ΔTm: 2.4 °C
[2]; [7]
  ΔTm Pu39: -0.7±0.2 °C
[3]; [7]
  ΔTm Telo: 0.1±0.1 °C
[4]; [7]
  ΔTm Duplex: 0±0.04 °C

## CCNc1ccc(/C=C2\N=C(C)N(C)C2=O)cc1 [N 683.1]
[1]
  LTR III stabilization: > 3 °C
  LTR-III (average): 3,1 °C
[1]; [6]
  LTR-III ΔTm: 5 °C
Cytotoxicity test
  CC50 at 9 days: > 25 µM
MT4 cells
  СС50 (MT4): > 25 µM
[2]; [7]
  ΔTm Pu39: 1.4±0.6 °C
[3]; [7]
  ΔTm Telo: -0.1±0.04 °C
[4]; [7]
  ΔTm Duplex: 0±0.04 °C
